# Data published in US20230110998A1, “Compositions and Methods for Treatment of Cytokine Storm and Cytokine Release Syndrome” (Yinuoke Medicine Science Technology Company Ltd., priority 2020, published 2023).
# Columns and labels:
# [1] = system: IL-6; test: Serum IL-6 levels in LPS-induced CRS; type: in vivo, BALB/c mice; conditions: 50 µg LPS i.p.; 10 mg/kg single i.p. injection; serum 2 hours after challenge; versus PBS, p=0.0023
# Description: 8-week-old male BALB/c mice were used for these studies. The mice were challenged with 50 µg LPS (Sigma Cat. No. L2630) dissolved in 0.1 mL PBS, a dosage designed to ensure all animals survived the challenge, via intraperitoneal injection. Mouse serum was collected 2 hours after the challenge, and IL-6 was measured with the Mouse Il-6 Flex Set (BD Biosciences Cat. No. 558301).
# Within 2 minutes of the LPS injection, test compound ketorolac (racemic mixture) or control vehicle (PBS) was administered at 10 mg per kg body weight by single intraperitoneal injection. 5 mice were included per experimental group.
# [2] = system: LPS-induced CRS; test: Acute diarrhea caused by high-dose LPS-induced CRS; type: in vivo, BALB/c mice; conditions: LPS 15 mg/kg i.p.
# Description: 8-10-week-old female BALB/c mice were used for these studies. The mice were challenged with LPS at 15 mg per kg body weight, a dosage which had been empirically determined to induce diarrhea in 100% of tested subjects, via intraperitoneal injection. The mice were monitored for diarrhea symptoms, with diarrhea defined by the presence of watery stools 6 hours after treatment. Within 2 minutes of the LPS injection, test compound ketorolac (racemic mixture, suspended in PBS) or control vehicle (PBS) was administered at 0.1 mg (corresponding to 5 mg/kg) by single intraperitoneal injection.
# [3] = system: LPS-induced CRS; test: Survival of mice with LPS-induced CRS; type: in vivo, BALB/c mice; conditions: 0.2 mg LPS i.p.
# Description: 8-week-old female BALB/c mice were used for these studies. […] The mice were challenged with 0.2 mg LPS (Sigma Cat. No. L2630) dissolved in 0.1 mL PBS via intraperitoneal injection. The mice were monitored for health condition and survival for a minimum of seven days. […]
# [4] = biological target: T1, COX2 (Homo sapiens, UniProt P35354); conditions: no test described; cited from earlier work
# T1 sequence (P35354 18-604): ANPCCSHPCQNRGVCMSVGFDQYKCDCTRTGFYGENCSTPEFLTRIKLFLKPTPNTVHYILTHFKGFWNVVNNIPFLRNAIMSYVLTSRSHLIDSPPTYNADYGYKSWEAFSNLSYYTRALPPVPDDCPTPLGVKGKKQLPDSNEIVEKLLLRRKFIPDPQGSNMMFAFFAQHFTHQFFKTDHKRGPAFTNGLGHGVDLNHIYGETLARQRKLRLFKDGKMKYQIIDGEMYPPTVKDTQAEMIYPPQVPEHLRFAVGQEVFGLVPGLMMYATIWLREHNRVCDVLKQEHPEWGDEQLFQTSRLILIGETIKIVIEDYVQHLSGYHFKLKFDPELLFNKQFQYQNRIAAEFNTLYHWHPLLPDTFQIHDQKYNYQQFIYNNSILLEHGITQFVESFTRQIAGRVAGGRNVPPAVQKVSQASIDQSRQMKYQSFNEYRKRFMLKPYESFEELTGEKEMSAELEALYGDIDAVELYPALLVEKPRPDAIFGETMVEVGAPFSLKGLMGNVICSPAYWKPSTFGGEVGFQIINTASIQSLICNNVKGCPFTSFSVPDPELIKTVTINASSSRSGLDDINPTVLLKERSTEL
# [5] = biological target: COX1 (Homo sapiens, UniProt P23219); conditions: no test described; cited from earlier work
# Chain of COX1 (P23219 24-599): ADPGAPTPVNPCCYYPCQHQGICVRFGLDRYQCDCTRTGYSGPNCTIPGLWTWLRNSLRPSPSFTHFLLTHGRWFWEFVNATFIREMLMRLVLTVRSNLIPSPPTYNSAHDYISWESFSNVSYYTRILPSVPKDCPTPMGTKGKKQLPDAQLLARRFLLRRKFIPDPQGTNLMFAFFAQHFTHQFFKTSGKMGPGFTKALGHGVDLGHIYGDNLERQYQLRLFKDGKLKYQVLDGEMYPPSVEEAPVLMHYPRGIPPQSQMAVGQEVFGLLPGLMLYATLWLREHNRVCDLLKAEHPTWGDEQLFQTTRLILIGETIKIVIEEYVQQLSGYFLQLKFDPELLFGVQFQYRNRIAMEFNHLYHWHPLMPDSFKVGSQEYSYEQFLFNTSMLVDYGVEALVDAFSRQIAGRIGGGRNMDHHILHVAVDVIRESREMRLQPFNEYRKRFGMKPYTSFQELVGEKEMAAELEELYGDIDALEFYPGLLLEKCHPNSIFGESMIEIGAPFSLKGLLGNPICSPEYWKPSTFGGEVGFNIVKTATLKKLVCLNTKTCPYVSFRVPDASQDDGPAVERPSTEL
# [6] = system: LPS-induced CRS; test: Body weight loss caused by low-dose LPS-induced CRS; type: in vivo, BALB/c mice; conditions: 0.05 mg LPS i.p.; 0.3 mg (15 mg/kg) oral; next day; compared with aspirin, p=0.0267
# Description: 8-week-old female BALB/c mice were used for these studies. The mice were challenged with 0.05 mg LPS (Sigma Cat. No. L2630) via intraperitoneal injection. Body weight was measured before LPS challenge and the next day after the challenge.
# Within 2 minutes of LPS injection, test compound (R)-ketorolac (0.3 mg, corresponding to 15 mg/kg), aspirin (0.3 mg, corresponding to 15 mg/kg), or control vehicle (PBS) was orally administered.
# [7] = system: C26 tumor cell-induced cytokine storm; test: Tumor-induced cytokine storm model, serum cytokines (Mouse-Cytokine-32-Plex assay); conditions: gavage 0.2 mg daily for six days, serum on day 7, compared to PBS controls
# Description: Cytokine storm inducing C26 tumor cells were cultured in Advanced RPMI 1640 medium supplied with 5% fetal bovine serum and 1% penicillin/streptomycin and maintained in a 5% CO2, 37° C. humidified incubator. Tumor cells with viability of >90% were chosen for the study. Viable tumor cells (1 × 10^6 cells) were re-suspended in 100 µL of PBS and subcutaneously injected into the left flank of mice. All procedures were performed in laminar flow hood following sterile techniques.
# 6-8 week BALB/c male and female mice were used for these studies. Following tumor inoculation, the animals were returned to the cage. The mice were monitored for the appearance of palpable tumor and cytokine storm development by observing health condition change and testing serum cytokines with Mouse-Cytokine-32-Plex assay.
# 2-4 mice were included in each experimental group. On day 7, mouse blood samples were collected and allowed to clot for one hour at room temperature. The samples were then centrifuged for 15 min at 3,000 rpm (1500 × g) at 4° C. Thirty microliters of serum per treatment animal were assessed for cytokine profiles using a Mouse-Cytokine-32-Plex assay (Eve Technologies Corporation, Calgary, AB, Canada).
Structure (SMILES),serum IL-6 levels [1],"decrease of acute diarrhea occurrence ([2]; 0.1 mg (5 mg/kg) i.p., versus control) [%]","diarrhea present, % of mice ([2]; 0.1 mg (5 mg/kg) single i.p. injection, watery stools 6 hours after treatment, n=8, control 87.5%) [%]","survival rate ([3]; 10 mg/kg single dose, surviving mice / n=6)","survival rate ([3]; 10 mg/kg, control 33.3%) [%]","increase in survival rate ([3]; 10 mg/kg, versus PBS control) [%]",activity against COX2 [4],activity against COX1 [5],body weight loss [6],serum concentration of G-CSF [7],serum concentration of GM-CSF [7],serum concentration of IL-1β [7],serum concentration of IL-6 [7],serum concentration of IL-7 [7],serum concentration of IL-10 [7],serum concentration of LIF [7],serum concentration of MCP-1 [7],serum concentration of MIP-1A [7],serum concentration of TNF-α [7]
O=C(c1ccccc1)c1ccc2n1CCC2C(=O)O (racemic) [ketorolac],decreased serum IL-6 levels,65,12.5,–,–,–,–,–,–,–,–,–,–,–,–,–,–,–,–
O=C(c1ccccc1)c1ccc2n1CC[C@H]2C(=O)O [(R)-ketorolac],–,–,–,⅚,83.3,50,not active,not active,significantly reduced body weight loss,effective in reducing,effective in reducing,effective in reducing,effective in reducing,effective in reducing,effective in reducing,effective in reducing,effective in reducing,effective in reducing,effective in reducing
